Source: publication PMC6277780, “A Multi-Mode Bioactive Agent Isolated From Ficus microcarpa L. Fill. With Therapeutic Potential for Type 2 Diabetes Mellitus” (Frontiers in Pharmacology, 2018)

Assays:
α-glucosidase = α-glucosidase (Saccharomyces cerevisiae, UniProt P53341); assay: α-Glucosidase inhibition assay (pNPG substrate, 405 nm); assay type: biochemical; conditions: Table 1, unit inferred
Procedure: α-Glucosidase inhibition activity of the fractions and pure compounds (both PA and FL) was determined using the method of [Li et al. (2005)], while few modifications were made, according to system suitability. […] The decrease in absorption spectrum of reaction mixture indicated the inhibition of α-glucosidase activity of the sample under test. Assays were conducted in triplicate in 96-well microtitre plates. […] Percentage of inhibition was calculate by using following formula.
(1) Inhibitory activity=(OD control−OD test sample)/OD control×100
IC50 was calculated by using table curve ASIN software (2D v4) through linear regression analysis.

DPP-4 = DPP-4 (Homo sapiens, UniProt P27487); assay: DPP-4 inhibition assay (fluorometric, Gly-Pro-AMC); assay type: biochemical; conditions: pure compound and positive control
Procedure: DPP-4 inhibition activity was assessed by using fluorometric technique, following the method documented by [Saleem et al., 2014]. This method calculates the quantity of free AMC (7-amino-4-methyl-coumarin). The AMC is released from the Gly-Pro-AMC which is the substrate of DPP-4. Experiment was performed in triplicate. Fluorescence was measured at Em 430 nm following excitation at Ex351 nm using a Tecan safire desktop fluorometer (Reading, England, United Kingdom). 50 mM HEPES buffer was used for preparation of each sample, whose pH was 7.4. To each well we added DPP-4 (20 μl 1 U/ml), test sample (20 μl) and […]. Plates were placed at 37°C for 1 h and then 3 mM acetic acid (100 μl) was pipetted to stop the reaction. We used Berberine (13 mM), as a control for each experiment, as already reported ([Al-Masri et al., 2009]). IC50 for inhibition of DPP-4 was calculated for each sample.

AMPK = AMPK activation potential in primary hepatocytes (western blot); assay type: cell-based, C57BL/6 mice; conditions: 8 h, PA 20 μM, glucagon 2 μM
Procedure: To evaluate the AMPK activation potential of PA we performed in vitro analysis. We used primary hepatocytes, derived from C57BL/6 mice (Cell Biologics; Cat. C57-6224F). Hepatocytes were kept in M199 (Corning), supplemented with FBS (fetal bovine serum 10%) and glutagro (1% Corning). Hepatocytes were then serum starved, overnight, and prior to procedure in RPMI 1640 (United States Biological Life Sciences, R8999). 8 h prior to harvest, cells were treated with glucagon (2 μM), or test sample (20 μM). Cells were rinsed with ice cold PBS, twice, after harvest and were placed on ice until the extraction of protein was carried out. Assay was conducted in triplicate with three plates for each treatment. Protein from cells was hauled out; quantified and western blot was performed to assess the activation of AMPK after treatment with PA and compared it with untreated control and the cells treated with glucagon.
Extraction of proteins and western blot analysis was carried out, as we already reported ([Akhtar et al., 2016]). Briefly, lysis buffer was added to the harvested cells. […] Concentration of protein in each lysate was measured using Pierce BCA protein assay kit (Thermo Scientific), as per manufacturer’s protocol. […]

Chain of α-glucosidase (P53341 whole entry): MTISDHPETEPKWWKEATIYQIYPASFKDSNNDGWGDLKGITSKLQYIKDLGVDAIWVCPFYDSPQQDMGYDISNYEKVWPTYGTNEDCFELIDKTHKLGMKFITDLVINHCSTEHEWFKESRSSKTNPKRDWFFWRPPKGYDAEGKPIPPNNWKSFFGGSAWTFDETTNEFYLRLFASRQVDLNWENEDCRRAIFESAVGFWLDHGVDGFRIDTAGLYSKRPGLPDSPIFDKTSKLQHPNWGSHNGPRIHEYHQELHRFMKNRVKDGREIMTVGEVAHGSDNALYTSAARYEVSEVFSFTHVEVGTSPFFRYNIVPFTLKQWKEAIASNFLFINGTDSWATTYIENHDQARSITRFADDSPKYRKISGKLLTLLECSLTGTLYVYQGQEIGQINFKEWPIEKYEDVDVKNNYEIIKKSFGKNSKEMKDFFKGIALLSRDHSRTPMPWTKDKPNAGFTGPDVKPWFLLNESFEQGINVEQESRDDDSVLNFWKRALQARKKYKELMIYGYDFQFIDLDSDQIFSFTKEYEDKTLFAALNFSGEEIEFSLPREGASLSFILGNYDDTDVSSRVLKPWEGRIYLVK
Chain of DPP-4 (P27487 whole entry, species assumed): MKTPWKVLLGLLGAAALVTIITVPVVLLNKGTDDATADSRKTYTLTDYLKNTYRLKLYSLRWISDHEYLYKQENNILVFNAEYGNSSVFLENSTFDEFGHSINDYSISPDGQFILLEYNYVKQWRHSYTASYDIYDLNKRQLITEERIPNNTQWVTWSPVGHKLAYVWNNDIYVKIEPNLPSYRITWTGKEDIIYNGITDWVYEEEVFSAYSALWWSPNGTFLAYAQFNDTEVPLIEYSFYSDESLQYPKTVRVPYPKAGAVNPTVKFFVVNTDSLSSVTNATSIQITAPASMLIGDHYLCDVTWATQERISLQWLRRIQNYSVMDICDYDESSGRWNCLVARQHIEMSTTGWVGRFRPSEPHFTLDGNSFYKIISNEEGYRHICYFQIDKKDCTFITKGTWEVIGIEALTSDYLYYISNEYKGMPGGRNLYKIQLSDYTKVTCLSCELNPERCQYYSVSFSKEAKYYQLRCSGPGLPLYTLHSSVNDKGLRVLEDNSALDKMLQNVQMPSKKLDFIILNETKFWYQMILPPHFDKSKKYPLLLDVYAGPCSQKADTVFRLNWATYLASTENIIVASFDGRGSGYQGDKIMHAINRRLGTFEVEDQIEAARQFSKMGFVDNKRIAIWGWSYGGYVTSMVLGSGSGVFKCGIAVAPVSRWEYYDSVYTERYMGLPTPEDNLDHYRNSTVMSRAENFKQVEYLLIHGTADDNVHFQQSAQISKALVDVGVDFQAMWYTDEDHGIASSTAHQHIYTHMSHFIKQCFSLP

3,4,5,7-Flavantetrol
IC50 (α-glucosidase): 200 µM

COc1ccc2cc3[n+](cc2c1OC)CCc1cc2c(cc1-3)OCO2 [Berberine, reference compound]
IC50 (DPP-4): 27.4 ± 2.2 µM

glucagon [reference compound]
AMPK activation (phosphorylation of AMPK at Thr172) (AMPK): no AMPK activation
phosphorylation of ACC to p-ACC at S79 (AMPK): not observed
